ChEMBL document CHEMBL5352398 (Eur J Med Chem, 2022)
pIC50: −log10 of the molar value. The source made the active and inactive calls. The calls are words filed in the database; no cut-off is given here.

Experiments:
[1] = molecular target: T1, Solute carrier family 22 member 12 (Homo sapiens, UniProt Q96S37); assay: Inhibition of human URAT1 stably overexpressing in human HEK293 cells assessed as inhibition of 14C-uric acid uptake preincubated for 30 mins followed by substrate addition and measured after 15 mins using 14C-uric acid as substrate by liquid scintillation counting analysis; format: cell-based
T1 sequence (Q96S37 whole entry): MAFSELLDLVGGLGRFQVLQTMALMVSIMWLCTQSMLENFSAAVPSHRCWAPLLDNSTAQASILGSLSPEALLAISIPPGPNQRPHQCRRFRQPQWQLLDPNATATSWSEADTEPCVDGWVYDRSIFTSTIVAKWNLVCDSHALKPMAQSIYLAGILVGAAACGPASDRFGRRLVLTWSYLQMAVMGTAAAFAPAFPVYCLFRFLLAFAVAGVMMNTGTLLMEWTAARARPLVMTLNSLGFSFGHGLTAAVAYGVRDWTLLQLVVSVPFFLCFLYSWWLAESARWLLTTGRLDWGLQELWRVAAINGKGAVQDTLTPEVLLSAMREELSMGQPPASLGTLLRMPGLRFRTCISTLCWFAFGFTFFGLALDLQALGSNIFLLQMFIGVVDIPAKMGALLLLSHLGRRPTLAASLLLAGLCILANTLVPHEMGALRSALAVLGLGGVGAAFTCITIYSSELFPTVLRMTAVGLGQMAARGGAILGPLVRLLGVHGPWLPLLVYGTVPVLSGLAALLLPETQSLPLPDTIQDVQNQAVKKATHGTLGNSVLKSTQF

Mus musculus = assay: Anti-hyperuricemic activity against potassium oxonate induced hyperuricemia in Kunming mouse model assessed as decrease in serum urate level at 2 mg/kg, po and measured after 3 hrs; format: functional, organism-based
[2] = Hepatotoxicity in Kunming mouse assessed as increase in AST level in serum at 50 mg/kg,po for 14 days in presence of BSO; format: toxicity, organism-based; details: in vivo, 336 h, time 14 day
[3] = Renal toxicity in Kunming mouse assessed as effect on creatinine level at 50 mg/kg,po for 14 days; format: organism-based; details: in vivo, 336 h, time 14 day
[4] = molecular target: T2, Solute carrier family 2, facilitated glucose transporter member 9 (Mus musculus, UniProt Q3T9X0); assay: Inhibition of mouse GLUT9 transfected in human HEK293 cells assessed as inhibition of uric acid induced current by cell patch-clamp assay; format: cell-based
T2 sequence (Q3T9X0 whole entry): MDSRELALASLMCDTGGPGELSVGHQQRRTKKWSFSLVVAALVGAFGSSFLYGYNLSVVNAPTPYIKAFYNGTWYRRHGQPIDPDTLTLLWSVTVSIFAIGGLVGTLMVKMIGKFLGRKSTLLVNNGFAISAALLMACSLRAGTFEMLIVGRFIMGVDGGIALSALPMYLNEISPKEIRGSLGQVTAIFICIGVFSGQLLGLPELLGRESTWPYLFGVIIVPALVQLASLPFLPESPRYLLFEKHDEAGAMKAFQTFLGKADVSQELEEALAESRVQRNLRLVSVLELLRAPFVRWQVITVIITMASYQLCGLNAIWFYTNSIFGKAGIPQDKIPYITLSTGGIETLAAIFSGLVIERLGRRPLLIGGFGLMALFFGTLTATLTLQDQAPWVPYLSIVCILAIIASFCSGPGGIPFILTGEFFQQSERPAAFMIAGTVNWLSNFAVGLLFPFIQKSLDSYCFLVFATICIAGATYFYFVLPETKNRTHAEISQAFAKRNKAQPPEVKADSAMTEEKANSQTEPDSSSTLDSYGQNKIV

[5] = molecular target: T3, Solute carrier family 22 member 6 (Homo sapiens, UniProt Q4U2R8); assay: Inhibition of OAT1 (unknown origin) transfected in HEK293 cells assessed as inhibition of 6-CFL uptake preincubated for 30 mins followed by 6-CFL addition and measured for 15 mins by fluorescence based microplate reader analysis; format: cell-based
T3 sequence (Q4U2R8 whole entry): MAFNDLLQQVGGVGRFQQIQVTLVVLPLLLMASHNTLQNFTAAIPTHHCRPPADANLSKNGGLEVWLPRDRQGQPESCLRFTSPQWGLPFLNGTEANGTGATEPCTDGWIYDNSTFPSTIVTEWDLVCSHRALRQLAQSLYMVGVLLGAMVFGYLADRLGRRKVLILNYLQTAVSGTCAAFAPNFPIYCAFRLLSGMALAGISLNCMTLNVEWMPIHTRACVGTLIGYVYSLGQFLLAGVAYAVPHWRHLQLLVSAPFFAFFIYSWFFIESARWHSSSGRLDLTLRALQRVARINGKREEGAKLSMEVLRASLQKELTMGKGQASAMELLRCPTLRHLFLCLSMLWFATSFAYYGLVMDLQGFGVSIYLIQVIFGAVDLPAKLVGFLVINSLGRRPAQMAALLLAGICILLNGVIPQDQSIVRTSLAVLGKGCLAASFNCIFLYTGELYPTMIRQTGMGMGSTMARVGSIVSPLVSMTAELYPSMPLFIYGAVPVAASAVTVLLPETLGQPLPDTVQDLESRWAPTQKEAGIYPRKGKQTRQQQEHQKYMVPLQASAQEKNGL

[6] = Tmax in Sprague-Dawley rat at 5 mg/kg, po and measured upto 24 hrs by LC-MS/MS analysis; format: ADME, organism-based; details: in vivo
[7] = Tmax in Sprague-Dawley rat at 5 mg/kg, iv and measured upto 24 hrs by LC-MS/MS analysis; format: ADME, organism-based; details: in vivo
[8] = Cmax in Sprague-Dawley rat at 5 mg/kg, po and measured upto 24 hrs by LC-MS/MS analysis; format: ADME, organism-based; design: dose 5 mg/kg, time < 24 hrs, route po; details: in vivo
[9] = Cmax in Sprague-Dawley rat at 5 mg/kg, iv and measured upto 24 hrs by LC-MS/MS analysis; format: ADME, organism-based; design: time < 24 hrs, dose 5 mg/kg, route iv; details: in vivo
[10] = Half life in Sprague-Dawley rat at 5 mg/kg, po and measured upto 24 hrs by LC-MS/MS analysis; format: ADME, organism-based; details: in vivo
[11] = Half life in Sprague-Dawley rat at 5 mg/kg, iv and measured upto 24 hrs by LC-MS/MS analysis; format: ADME, organism-based; details: in vivo
[12] = AUC(0 to infinity) in Sprague-Dawley rat at 5 mg/kg, po and measured upto 24 hrs by LC-MS/MS analysis; format: ADME, organism-based; design: time < 24 hrs, dose 5 mg/kg, route po; details: in vivo
[13] = AUC(0 to infinity) in Sprague-Dawley rat at 5 mg/kg, iv and measured upto 24 hrs by LC-MS/MS analysis; format: ADME, organism-based; design: dose 5 mg/kg, time < 24 hrs, route iv; details: in vivo
[14] = MRT (0 to infinity) in Sprague-Dawley rat at 5 mg/kg, po and measured upto 24 hrs by LC-MS/MS analysis; format: ADME, organism-based; details: in vivo
[15] = MRT (0 to infinity) in Sprague-Dawley rat at 5 mg/kg, iv and measured upto 24 hrs by LC-MS/MS analysis; format: ADME, organism-based; details: in vivo
[16] = Oral bioavailability in Sprague-Dawley rat at 5 mg/kg and measured upto 24 hrs by LCMS analysis; format: ADME, organism-based; details: in vivo
[17] = Subacute toxicity in Kunming mouse assessed as animal death at 50 mg/kg,po for 14 days; format: organism-based; details: in vivo, 336 h, time 14 day
[18] = Subacute toxicity in Kunming mouse assessed as body weight change at 50 mg/kg,po for 14 days; format: organism-based; details: in vivo, 336 h, time 14 day
[19] = Subacute toxicity in Kunming mouse assessed as lethargy at 50 mg/kg,po for 14 days; format: organism-based; details: in vivo, 336 h, time 14 day
[20] = Subacute toxicity in Kunming mouse assessed as clonic convulsion at 50 mg/kg,po for 14 days; format: organism-based; details: in vivo, 336 h, time 14 day
[21] = Subacute toxicity in Kunming mouse assessed as anorexia at 50 mg/kg,po for 14 days; format: organism-based; details: in vivo, 336 h, time 14 day
[22] = Subacute toxicity in Kunming mouse assessed as ruffled fur at 50 mg/kg,po for 14 days; format: organism-based; details: in vivo, 336 h, time 14 day
[23] = Hepatotoxicity in Kunming mouse assessed as increase in ALT level in serum at 50 mg/kg,po for 14 days in presence of BSO; format: toxicity, organism-based; details: in vivo, 336 h, time 14 day
[24] = Renal toxicity in Kunming mouse assessed as effect on BUN level at 50 mg/kg,po for 14 days; format: organism-based; details: in vivo, 336 h, time 14 day
[25] = Toxicity in Kunming mouse assessed as cell arrangements in liver at 50 mg/kg, po administered and measured after 14 days by HE staining; format: organism-based; details: in vivo, 336 h, time 14 day
[26] = Toxicity in Kunming mouse assessed as inflammatory infiltration in liver at 50 mg/kg, po administered and measured after 14 days by HE staining; format: organism-based; details: in vivo, 336 h, time 14 day
[27] = Toxicity in Kunming mouse assessed as appearance of normal tubular structure in kidney at 50 mg/kg, po administered and measured after 14 days by HE staining; format: organism-based; details: in vivo, 336 h, time 14 day
[28] = Toxicity in Kunming mouse assessed as appearance of normal glomerulus cells in kidney at 50 mg/kg, po administered and measured after 14 days by HE staining; format: organism-based; details: in vivo, 336 h, time 14 day
HepG2 = assay: Cytotoxicity against human HepG2 cells assessed as reduction in cell viability upto 400 uM incubated for 24 hrs by MTT assay; format: toxicity, cell-based; details: hepg2, 24 h
[29] = Toxicity in Kunming mouse assessed as inflammatory infiltration in kidney at 50 mg/kg, po administered and measured after 14 days by HE staining; format: organism-based; details: in vivo, 336 h, time 14 day

## O=C(c1cc(Br)c(O)c(Br)c1)n1ccc2cccnc21
[1]
  pIC50: 5.64

## COc1cc(C(=O)n2ccc3cccnc32)ccc1O
[1]
  pIC50: 5.57

## O=C(c1ccc(O)c([N+](=O)[O-])c1)n1ccc2cccnc21
[1]
  pIC50: 5.53

## O=C(O)CSc1nnc(Br)n1-c1ccc(C2CC2)c2ccccc12
Mus musculus
  Activity: Active

## Cc1cc(C(=O)n2ccc3cccnc32)ccc1O
[1]
  pIC50: 5.23

## O=C(c1ccc(O)c(F)c1)n1ccc2cccnc21
[1]
  pIC50: 5.68

## O=C(c1cc(Cl)c(O)c(Cl)c1)N1CCc2cc(Br)ccc21
[1]
  pIC50: 5.63

## O=C(c1cc(Cl)c(O)c(Cl)c1)n1ccc2ccncc21
[1]
  pIC50: 5.49

## O=C(c1ccc(O)c(Br)c1)n1ccc2cccnc21
[1]
  pIC50: 5.42

## O=C(c1cc(Cl)c(O)c(Cl)c1)n1ccc2ncccc21
[1]
  pIC50: 5.81

## CC1Cc2ccccc2N1C(=O)c1cc(Cl)c(O)c(Cl)c1 (stereo unspecified)
[1]
  pIC50: 5.80

## O=C(c1cc(Cl)c(O)c(Cl)c1)n1ccc2cccnc21
[2]
  Activity: Non-Toxic
[3]
  Activity: Non-Toxic
[1]
  pIC50: 6.10
[4]
  pIC50: < 4.70
[5]
  pIC50: 4.99
[6]
  Tmax: 17.4 min
[7]
  Tmax: 31.2 min
[8]
  Cmax: 6830 ng/mL
[9]
  Cmax: 18400 ng/mL
[10]
  half-life: 277 min
[11]
  half-life: 408 min
[12]
  AUC(0-inf): 35300 ng·h/mL
[13]
  AUC(0-inf): 63800 ng·h/mL
[14]
  MRT inf: 7.27 h
[15]
  MRT inf: 9.85 h
[16]
  bioavailability: 55.3%
[17]
  Activity: Non-Toxic
[18]
  Activity: Non-Toxic
[19]
  Activity: Non-Toxic
[20]
  Activity: Non-Toxic
[21]
  Activity: Non-Toxic
[22]
  Activity: Non-Toxic
[23]
  Activity: Non-Toxic
[24]
  Activity: Non-Toxic
[25]
  Activity: Non-Toxic
[26]
  Activity: Non-Toxic
[27]
  Activity: Non-Toxic
[28]
  Activity: Non-Toxic
HepG2
  Activity: Toxic
[29]
  Activity: Non-Toxic

## O=C(c1cc(Cl)c(O)c(Cl)c1)n1ccc2c(Cl)ncnc21
[1]
  pIC50: 5.70

## O=C(c1ccc(O)cc1)n1ccc2cccnc21
[1]
  pIC50: 5.76

## O=C(c1cc(Cl)c(O)c(Cl)c1)n1cc(Br)c2cccnc21
[1]
  pIC50: 5.81

## Cc1ccc2c(cnn2C(=O)c2cc(Cl)c(O)c(Cl)c2)c1
[1]
  pIC50: 5.74

## CC(C)(Sc1ccncc1-c1ccc(C#N)c2ccccc12)C(=O)O
[1]
  pIC50: 6.89

## O=C(c1cc(Cl)c(O)c(Cl)c1)n1ccc2cnccc21
[1]
  pIC50: 5.55

## COc1cc(C(=O)n2ccc3cccnc32)cc(OC)c1O
[1]
  pIC50: 5.31

## Cc1cc(C(=O)n2ccc3cccnc32)cc(C)c1O
[1]
  pIC50: 5.57

## O=C(c1cc(Cl)c(O)c(Cl)c1)n1ncc2ccccc21
[1]
  pIC50: 5.65

## O=C(c1ccc(O)c(Cl)c1)n1ccc2cccnc21
[1]
  pIC50: 5.80
